Measured values: ChEMBL document CHEMBL3797068, “eCF309: a potent, selective and cell-permeable mTOR inhibitor” (Medchemcomm, 2016)
Active and inactive are the calls of the source. The calls are words filed in the database; no cut-off is given here.

What was measured:
[1] = tested on: MDA-MB-231; experiment: Cell cycle arrest in human MDA-MB-231 cells assessed as increase in G0/G1 population after 24 hrs by Hoechst 33342 staining-based fluorescence analysis; type: functional
[2] = Cell cycle arrest in human PC3 cells assessed as increase in G0/G1 population after 24 hrs by Hoechst 33342 staining-based fluorescence analysis; type: functional; details: PC-3
[3] = target: T1, Phosphatidylinositol 4,5-bisphosphate 3-kinase catalytic subunit delta isoform (Homo sapiens, UniProt O00329); experiment: Inhibition of PI3Kdelta (unknown origin) using PIP2 as substrate by HTRF assay
T1 sequence (O00329 whole entry): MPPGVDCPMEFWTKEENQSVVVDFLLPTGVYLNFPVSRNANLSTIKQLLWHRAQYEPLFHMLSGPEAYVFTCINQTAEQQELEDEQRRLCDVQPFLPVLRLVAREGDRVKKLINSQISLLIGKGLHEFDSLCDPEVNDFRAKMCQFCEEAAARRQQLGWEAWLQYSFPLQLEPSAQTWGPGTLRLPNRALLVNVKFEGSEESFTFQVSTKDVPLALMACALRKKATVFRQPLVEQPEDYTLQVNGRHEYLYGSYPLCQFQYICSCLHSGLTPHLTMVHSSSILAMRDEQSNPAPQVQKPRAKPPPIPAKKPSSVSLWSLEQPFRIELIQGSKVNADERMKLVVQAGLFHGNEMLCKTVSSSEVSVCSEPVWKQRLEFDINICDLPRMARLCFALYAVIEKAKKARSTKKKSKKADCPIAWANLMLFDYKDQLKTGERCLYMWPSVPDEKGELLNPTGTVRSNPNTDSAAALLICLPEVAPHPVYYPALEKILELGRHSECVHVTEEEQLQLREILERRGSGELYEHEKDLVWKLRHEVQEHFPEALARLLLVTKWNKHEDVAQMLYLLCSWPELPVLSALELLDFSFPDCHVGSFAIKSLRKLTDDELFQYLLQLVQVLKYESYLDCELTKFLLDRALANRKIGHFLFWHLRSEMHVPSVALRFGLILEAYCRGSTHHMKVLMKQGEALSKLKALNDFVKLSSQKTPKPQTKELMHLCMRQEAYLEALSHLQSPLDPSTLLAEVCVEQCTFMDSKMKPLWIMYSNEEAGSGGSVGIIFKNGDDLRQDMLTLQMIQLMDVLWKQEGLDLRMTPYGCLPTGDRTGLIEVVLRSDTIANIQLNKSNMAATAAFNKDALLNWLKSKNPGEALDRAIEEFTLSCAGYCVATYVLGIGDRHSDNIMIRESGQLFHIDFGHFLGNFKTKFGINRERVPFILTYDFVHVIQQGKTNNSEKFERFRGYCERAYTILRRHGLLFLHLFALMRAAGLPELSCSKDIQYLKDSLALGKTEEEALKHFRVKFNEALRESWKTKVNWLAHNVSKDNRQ

[4] = target: Phosphatidylinositol 4,5-bisphosphate 3-kinase catalytic subunit beta isoform (Homo sapiens, UniProt P42338); experiment: Inhibition of PI3Kbeta (unknown origin) using PIP2 as substrate by HTRF assay
Phosphatidylinositol 4,5-bisphosphate 3-kinase catalytic subunit beta isoform, sequence (P42338 whole entry, canonical isoform): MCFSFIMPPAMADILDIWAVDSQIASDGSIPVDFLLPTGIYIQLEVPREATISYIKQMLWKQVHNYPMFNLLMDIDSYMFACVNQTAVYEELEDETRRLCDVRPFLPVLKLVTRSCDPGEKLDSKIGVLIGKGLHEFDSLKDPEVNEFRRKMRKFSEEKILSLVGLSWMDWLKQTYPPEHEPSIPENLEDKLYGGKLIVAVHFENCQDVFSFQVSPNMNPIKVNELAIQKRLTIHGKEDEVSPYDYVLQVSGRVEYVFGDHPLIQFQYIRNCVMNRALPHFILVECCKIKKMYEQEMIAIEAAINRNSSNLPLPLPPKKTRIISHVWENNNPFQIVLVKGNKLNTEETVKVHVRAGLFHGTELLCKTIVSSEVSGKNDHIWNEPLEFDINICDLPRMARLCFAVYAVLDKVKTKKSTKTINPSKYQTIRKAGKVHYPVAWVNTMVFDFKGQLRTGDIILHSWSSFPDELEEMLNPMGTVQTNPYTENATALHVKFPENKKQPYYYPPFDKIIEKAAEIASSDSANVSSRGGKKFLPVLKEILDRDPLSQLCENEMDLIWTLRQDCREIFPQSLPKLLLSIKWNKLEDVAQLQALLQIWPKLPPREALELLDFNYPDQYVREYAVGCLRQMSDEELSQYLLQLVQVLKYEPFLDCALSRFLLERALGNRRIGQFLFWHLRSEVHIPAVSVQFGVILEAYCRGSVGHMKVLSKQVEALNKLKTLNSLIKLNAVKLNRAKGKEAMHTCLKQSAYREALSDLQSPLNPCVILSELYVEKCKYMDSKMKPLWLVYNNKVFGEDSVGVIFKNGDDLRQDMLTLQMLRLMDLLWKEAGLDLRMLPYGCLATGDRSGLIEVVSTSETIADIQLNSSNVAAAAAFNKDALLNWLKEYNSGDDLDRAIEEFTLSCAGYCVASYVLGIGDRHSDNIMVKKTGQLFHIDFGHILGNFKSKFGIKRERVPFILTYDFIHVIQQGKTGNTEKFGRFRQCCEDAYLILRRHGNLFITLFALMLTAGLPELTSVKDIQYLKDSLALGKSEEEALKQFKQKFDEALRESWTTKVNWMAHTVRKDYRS

[5] = target: Phosphatidylinositol 4,5-bisphosphate 3-kinase catalytic subunit gamma isoform (Homo sapiens, UniProt P48736); experiment: Inhibition of PI3Kgamma (unknown origin) using PIP2 as substrate by HTRF assay
[6] = tested on: MDA-MB-231; experiment: Cytotoxicity against human MDA-MB-231 cells after 5 days by Presto blue reagent-based spectrofluorometric analysis; type: functional, cell-based; details: MDA-MB-231, 120 h
[7] = Cytotoxicity against human PC3 cells after 5 days by Presto blue reagent-based spectrofluorometric analysis; type: functional, cell-based; details: PC-3, 120 h
[8] = tested on: MCF7; experiment: Cytotoxicity against human MCF7 cells after 5 days by Presto blue reagent-based fluorescence analysis; type: functional, cell-based; details: for EC50: MCF7, 120 h
[9] = target: Phosphatidylinositol 4,5-bisphosphate 3-kinase catalytic subunit alpha isoform (Homo sapiens, UniProt P42336); experiment: Inhibition of PI3Kalpha (unknown origin) using PIP2 as substrate by HTRF assay
[10] = target: DNA-dependent protein kinase catalytic subunit (Homo sapiens, UniProt P78527); experiment: Inhibition of human DNA-PK using (poly [Glu, Tyr] 4:1) as substrate assessed as incorporation of 33P in substrate by [gamma33P] ATP-based kinase assay
DNA-dependent protein kinase catalytic subunit, sequence (P78527 whole entry): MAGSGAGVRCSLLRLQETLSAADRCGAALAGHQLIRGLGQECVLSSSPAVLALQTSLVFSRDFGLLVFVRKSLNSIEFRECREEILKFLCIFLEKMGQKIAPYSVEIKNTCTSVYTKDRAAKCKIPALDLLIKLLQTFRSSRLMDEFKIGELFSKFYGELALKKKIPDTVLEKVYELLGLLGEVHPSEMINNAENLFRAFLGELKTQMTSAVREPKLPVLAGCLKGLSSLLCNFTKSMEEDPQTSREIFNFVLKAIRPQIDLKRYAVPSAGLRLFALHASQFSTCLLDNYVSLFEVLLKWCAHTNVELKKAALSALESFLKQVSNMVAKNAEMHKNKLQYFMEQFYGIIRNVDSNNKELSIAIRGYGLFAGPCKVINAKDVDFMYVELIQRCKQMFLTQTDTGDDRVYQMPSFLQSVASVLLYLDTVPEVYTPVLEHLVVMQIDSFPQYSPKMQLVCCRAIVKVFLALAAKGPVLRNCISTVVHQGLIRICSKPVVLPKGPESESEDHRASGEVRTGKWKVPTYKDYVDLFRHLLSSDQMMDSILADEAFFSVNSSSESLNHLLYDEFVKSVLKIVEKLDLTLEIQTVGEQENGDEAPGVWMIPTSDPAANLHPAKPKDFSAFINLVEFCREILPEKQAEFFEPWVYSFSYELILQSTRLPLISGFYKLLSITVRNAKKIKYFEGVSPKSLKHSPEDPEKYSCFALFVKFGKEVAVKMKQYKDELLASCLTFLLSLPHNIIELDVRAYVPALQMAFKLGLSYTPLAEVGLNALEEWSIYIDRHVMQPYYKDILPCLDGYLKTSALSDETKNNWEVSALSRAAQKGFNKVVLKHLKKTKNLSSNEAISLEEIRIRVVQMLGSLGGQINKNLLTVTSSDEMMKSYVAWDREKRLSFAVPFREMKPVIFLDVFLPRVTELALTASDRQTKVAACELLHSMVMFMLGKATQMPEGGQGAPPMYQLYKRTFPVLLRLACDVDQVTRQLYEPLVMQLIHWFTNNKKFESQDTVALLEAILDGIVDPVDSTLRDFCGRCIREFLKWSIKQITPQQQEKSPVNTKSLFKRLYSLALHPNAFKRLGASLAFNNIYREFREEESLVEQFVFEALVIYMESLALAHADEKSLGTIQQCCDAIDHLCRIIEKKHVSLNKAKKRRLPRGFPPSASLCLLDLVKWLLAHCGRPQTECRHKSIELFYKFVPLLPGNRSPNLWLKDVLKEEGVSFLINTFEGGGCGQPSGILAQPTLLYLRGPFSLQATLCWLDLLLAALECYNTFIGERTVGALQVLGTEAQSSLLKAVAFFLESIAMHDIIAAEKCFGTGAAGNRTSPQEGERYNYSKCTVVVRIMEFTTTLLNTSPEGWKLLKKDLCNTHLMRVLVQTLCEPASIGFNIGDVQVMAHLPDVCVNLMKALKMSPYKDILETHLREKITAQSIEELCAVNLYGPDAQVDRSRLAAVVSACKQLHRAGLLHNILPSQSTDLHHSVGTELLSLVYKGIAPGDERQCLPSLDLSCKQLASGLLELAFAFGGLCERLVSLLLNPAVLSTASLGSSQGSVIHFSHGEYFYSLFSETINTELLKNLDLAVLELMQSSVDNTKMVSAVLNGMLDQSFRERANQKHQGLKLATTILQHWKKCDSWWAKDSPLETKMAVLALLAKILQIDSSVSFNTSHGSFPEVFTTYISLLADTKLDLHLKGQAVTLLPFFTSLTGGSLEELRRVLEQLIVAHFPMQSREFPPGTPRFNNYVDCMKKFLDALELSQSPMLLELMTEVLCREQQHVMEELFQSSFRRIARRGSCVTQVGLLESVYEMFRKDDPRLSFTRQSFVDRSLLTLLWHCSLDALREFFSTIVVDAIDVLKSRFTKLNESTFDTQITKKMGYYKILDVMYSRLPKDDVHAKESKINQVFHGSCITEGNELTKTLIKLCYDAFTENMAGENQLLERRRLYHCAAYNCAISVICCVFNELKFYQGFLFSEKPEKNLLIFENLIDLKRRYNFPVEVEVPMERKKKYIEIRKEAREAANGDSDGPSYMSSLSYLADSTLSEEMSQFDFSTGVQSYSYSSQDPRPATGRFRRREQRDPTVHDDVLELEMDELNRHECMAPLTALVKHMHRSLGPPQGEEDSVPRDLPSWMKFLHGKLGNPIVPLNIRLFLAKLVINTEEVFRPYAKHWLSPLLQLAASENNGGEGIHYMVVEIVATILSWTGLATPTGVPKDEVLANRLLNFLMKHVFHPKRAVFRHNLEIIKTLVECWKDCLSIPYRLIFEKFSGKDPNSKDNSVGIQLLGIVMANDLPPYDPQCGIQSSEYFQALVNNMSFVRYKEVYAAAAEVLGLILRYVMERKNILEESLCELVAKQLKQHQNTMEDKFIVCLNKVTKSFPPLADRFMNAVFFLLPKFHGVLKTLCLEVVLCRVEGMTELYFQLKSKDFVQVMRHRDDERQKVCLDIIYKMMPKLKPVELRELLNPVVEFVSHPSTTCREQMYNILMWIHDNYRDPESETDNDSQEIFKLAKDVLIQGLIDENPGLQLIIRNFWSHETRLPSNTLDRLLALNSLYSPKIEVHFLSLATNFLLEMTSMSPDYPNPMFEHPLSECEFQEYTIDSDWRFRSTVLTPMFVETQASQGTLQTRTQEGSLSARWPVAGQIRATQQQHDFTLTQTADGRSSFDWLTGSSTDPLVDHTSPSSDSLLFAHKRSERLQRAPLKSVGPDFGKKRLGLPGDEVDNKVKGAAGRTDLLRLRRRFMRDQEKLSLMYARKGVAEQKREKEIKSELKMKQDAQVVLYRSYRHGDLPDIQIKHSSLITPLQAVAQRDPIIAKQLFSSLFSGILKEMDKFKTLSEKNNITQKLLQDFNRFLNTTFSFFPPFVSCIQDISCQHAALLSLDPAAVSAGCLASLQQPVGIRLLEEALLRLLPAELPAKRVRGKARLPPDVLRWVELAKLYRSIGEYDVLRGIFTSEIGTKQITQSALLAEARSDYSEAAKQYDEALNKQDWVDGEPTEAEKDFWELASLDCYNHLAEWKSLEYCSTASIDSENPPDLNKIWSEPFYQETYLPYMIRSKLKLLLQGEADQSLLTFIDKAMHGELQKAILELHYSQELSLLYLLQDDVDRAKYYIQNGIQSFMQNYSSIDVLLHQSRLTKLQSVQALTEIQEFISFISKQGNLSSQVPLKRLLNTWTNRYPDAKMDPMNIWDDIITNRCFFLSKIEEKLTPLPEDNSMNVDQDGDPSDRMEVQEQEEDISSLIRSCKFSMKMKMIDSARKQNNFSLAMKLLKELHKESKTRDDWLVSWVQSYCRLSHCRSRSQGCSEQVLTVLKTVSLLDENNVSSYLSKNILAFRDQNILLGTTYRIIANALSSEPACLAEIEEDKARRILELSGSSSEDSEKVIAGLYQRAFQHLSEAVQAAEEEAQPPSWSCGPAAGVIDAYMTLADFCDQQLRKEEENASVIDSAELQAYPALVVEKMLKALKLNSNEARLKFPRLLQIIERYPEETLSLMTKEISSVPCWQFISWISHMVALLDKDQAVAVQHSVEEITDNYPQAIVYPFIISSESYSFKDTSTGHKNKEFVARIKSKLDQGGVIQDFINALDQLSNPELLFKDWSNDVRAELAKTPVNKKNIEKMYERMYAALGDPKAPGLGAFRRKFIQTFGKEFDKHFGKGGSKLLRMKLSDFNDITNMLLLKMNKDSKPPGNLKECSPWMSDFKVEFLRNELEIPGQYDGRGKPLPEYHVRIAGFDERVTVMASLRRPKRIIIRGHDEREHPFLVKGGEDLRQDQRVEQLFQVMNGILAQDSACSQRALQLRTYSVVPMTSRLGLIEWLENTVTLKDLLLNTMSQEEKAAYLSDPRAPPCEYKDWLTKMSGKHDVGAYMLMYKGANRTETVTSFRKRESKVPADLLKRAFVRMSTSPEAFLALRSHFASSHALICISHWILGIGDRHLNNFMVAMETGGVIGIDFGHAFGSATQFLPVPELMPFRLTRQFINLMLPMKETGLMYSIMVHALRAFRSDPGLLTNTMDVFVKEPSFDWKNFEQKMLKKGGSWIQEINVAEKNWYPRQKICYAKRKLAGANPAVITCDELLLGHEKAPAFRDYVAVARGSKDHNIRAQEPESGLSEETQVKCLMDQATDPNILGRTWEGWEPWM

[11] = tested on: MCF7; experiment: Cell cycle arrest in human MCF7 cells assessed as increase in G0/G1 population after 24 hrs by Hoechst 33342 staining-based fluorescence analysis; type: functional
[12] = target: Epithelial discoidin domain-containing receptor 1 (Homo sapiens, UniProt Q08345); experiment: Inhibition of human DDR1 using (poly [Glu, Tyr] 4:1) as substrate assessed as incorporation of 33P in substrate by [gamma33P] ATP-based kinase assay
[13] = target: Serine/threonine-protein kinase mTOR (Homo sapiens, UniProt P42345); experiment: Inhibition of recombinant human mTOR by LanthaScreen Kinase assay
[14] = tested on: MCF7; experiment: Cytotoxicity against human MCF7 cells at 0.3 to 1000 nM after 5 days by Presto blue reagent-based spectrofluorometric analysis; type: functional, cell-based
[15] = tested on: MCF7; experiment: Cytotoxicity against human MCF7 cells assessed as cell viability at 1000 nM after 5 days by Presto blue reagent-based spectrofluorometric analysis; type: functional; details: MCF7, 120 h, read-out: Activity

IC50 [3] [nM] | IC50 [4] [nM] | IC50 [5] [nM] | IC50 [9] [nM] | IC50 [10] [nM] | IC50 [12] [nM] | IC50 [13] [nM] | SMILES | Activity [1] | Activity [2] | EC50 [6] [nM] | EC50 [7] [nM] | EC50 [8] [nM] | Activity [11] | Activity [8] | other results
149 | 1120 | 77 | 44 | 48 | 137 | 5 | Nc1nc2cc(-c3nn(CC4CCCO4)c4ncnc(N)c34)ccc2o1 (stereo unspecified) | Active | Active | 113 | 51 | 8 | Active | – | –
– | – | – | – | – | – | – | Nc1nc2cc(-c3nn(CC=O)c4ncnc(N)c34)ccc2o1 | – | – | – | – | – | – | – | Activity [14]: inactive
7.3 | 89 | 5 | 3.5 | 3 | 4.7 | 1.8 | Nc1nc2cc(-c3nn(CC4CCCC4)c4ncnc(N)c34)ccc2o1 | Active | Active | 12 | 4 | 1.7 | Active | – | –
– | – | – | – | – | – | – | COC(Cn1nc(-c2cnc3[nH]ccc3c2)c2c(N)ncnc21)OC | – | – | – | – | – | – | Active | –
– | – | – | – | – | – | – | CO[C@H]1C[C@@H]2CC[C@@H](C)[C@@](O)(O2)C(=O)C(=O)N2CCCC[C@H]2C(=O)O[C@H]([C@H](C)C[C@@H]2CC[C@@H](O)[C@H](OC)C2)CC(=O)[C@H](C)/C=C(\C)[C@@H](O)[C@@H](OC)C(=O)[C@H](C)C[C@H](C)/C=C/C=C/C=C/1C [SIROLIMUS] | – | – | – | – | < 1 | – | – | viability at 1 µM [15]: 30%
– | – | – | – | – | – | – | Nc1ncnc2c1c(-c1cnc3[nH]ccc3c1)nn2CC1OCCO1 | – | – | – | – | – | – | Active | –
